According to patent publication US11560400B2, “Salts of diphosphate phosphoramidate of nucleosides as anticancer compounds” (NuCana plc, priority 2017, dated 2023):
Counter-ions that a name gives are not always drawn. Like-named read-outs stand apart in the source and are kept apart here.

What was measured:
CCRF-CEM = assay: CellTiterGlo cell viability assay, CCRF-CEM; format: cell-based; settings: Homo sapiens, 72 h; for EC50: read-out: Ab EC50; for inhibition at 198 µM: percentage inhibition at the highest concentration tested, read-out: Top Inh
Method: (§1) A subset of compounds of the invention were assayed for their cytotoxic activity in an array of different solid tumours and haematological malignancies using the following assay.
(§2) In vitro viability assay were performed to assess the effects of compounds on cell viability in selected cell lines over 72 h using the CellTiterGlo (CTG, Promega-G7573) assay. The tests were performed in duplicates with treatment of compounds at 9 points, 3.16 folds titration in 96 well plates over ˜72 h. The compound starting concentrations were 198 μM. Cell viability assay using CellTiterGlo in 96-well plate were performed. Compound treatment 72 h, standard growth conditions, duplicates. Compounds were dissolved to 40 mM with thawed […]. Compounds were serially diluted at 3.16 fold in thawed DMSO, and warmed to 37° C. before being dissolved in media (2 μL+200 μL). After compounds were dissolved in media, media containing compounds were warmed to 37° C. in incubator and then compounds in media were added to cell plates (50 μL+50 μL) in duplicates. The compounds' final concentrations were from 198 μM to 19.8 nM. All compound solubilities were checked and recorded again, then the plates were transferred to CO2 tissue culture incubator immediately and incubated for 3 days. DMSO final concentration is 0.5%. The parent nucleoside in each case was tested as a comparator, as was an exemplary ProTide. The drugs of the ProTide class that were tested were as follows:
(§3) The following cell lines were tested and are referred to in the Table 1 below:
(§4) In Tables 2, 3 and 4, ‘Ab EC50’ refers to the absolute EC50 and ‘Top inhibit’ refers to the percentage inhibition achieved at the highest concentration tested.

RL = assay: CellTiterGlo cell viability assay, RL; format: cell-based; settings: Homo sapiens, 72 h; for inhibition at 198 µM: percentage inhibition at the highest concentration tested, read-out: Top Inh; for EC50: Table 4 classes, read-out: Ab EC50
Method: as §1, §2, §3, §4

HepG2 = assay: CellTiterGlo cell viability assay, HepG2; format: cell-based; settings: Homo sapiens, HepG2, 72 h; for EC50: read-out: Ab EC50; for inhibition at 198 µM: percentage inhibition at the highest concentration tested, read-out: Top Inhibit
Method: as §1, §2, §3, §4

MCF-7 = assay: CellTiterGlo cell viability assay, MCF-7; format: cell-based; settings: Homo sapiens, MCF7, 72 h, MCF-7, 72 h, percentage inhibition at the highest concentration tested; read-out: Top Inhibit
Method: as §1, §2, §3, §4

MOLT-4 = assay: CellTiterGlo cell viability assay, MOLT-4; format: cell-based; settings: Homo sapiens, MOLT-4, 72 h; for inhibition at 198 µM: percentage inhibition at the highest concentration tested, read-out: Top Inh; for EC50: read-out: Ab EC50
Method: as §1, §2, §3, §4

KG-1 = assay: CellTiterGlo cell viability assay, KG-1; format: cell-based; settings: Homo sapiens, KG-1, 72 h; for EC50: read-out: Ab EC50; for inhibition at 198 µM: percentage inhibition at the highest concentration tested, read-out: Top Inhibit
Method: as §1, §2, §3, §4

HT29 = assay: CellTiterGlo cell viability assay, HT29; format: cell-based; settings: Homo sapiens, HT-29, 72 h, HT29, 72 h; for EC50: read-out: Ab EC50; for inhibition at 198 µM: percentage inhibition at the highest concentration tested, read-out: Top Inhibit
Method: as §1, §2, §3, §4

RPMI-8226 = assay: CellTiterGlo cell viability assay, RPMI-8226; format: cell-based, Human; settings: Homo sapiens, RPMI-8226, 72 h; for EC50: read-out: Ab EC50; for inhibition at 198 µM: percentage inhibition at the highest concentration tested, read-out: Top Inh
Method: as §1, §2, §3, §4

K562 = assay: CellTiterGlo cell viability assay, K562; format: cell-based; settings: Homo sapiens; for inhibition at 198 µM: percentage inhibition at the highest concentration tested, read-out: Top Inh; for EC50: read-out: Ab EC50
Method: as §1, §2, §3, §4

OVCAR 3 = assay: CellTiterGlo cell viability assay, OVCAR 3; format: cell-based; settings: Homo sapiens; for inhibition at 198 µM: OVCAR-3, 72 h, percentage inhibition at the highest concentration tested, read-out: Top Inhibit; for EC50: OVCAR 3, 72 h, read-out: Ab EC50
Method: as §1, §2, §3, §4

HL-60 = assay: CellTiterGlo cell viability assay, HL-60; format: cell-based; settings: Homo sapiens, HL-60, 72 h; for EC50: read-out: Ab EC50; for inhibition at 198 µM: percentage inhibition at the highest concentration tested, read-out: Top Inh
Method: as §1, §2, §3, §4

[1] = K562, K 562, 72 h, Table 4 classes

SMILES	inhibition at 198 µM (CCRF-CEM) [%]	inhibition at 198 µM (RL) [%]	inhibition at 198 µM (HepG2) [%]	inhibition at 198 µM (MCF-7) [%]	inhibition at 198 µM (MOLT-4) [%]	inhibition at 198 µM (KG-1) [%]	inhibition at 198 µM (HT29) [%]	inhibition at 198 µM (RPMI-8226) [%]	inhibition at 198 µM (K562; K562, 72 h) [%]	inhibition at 198 µM (OVCAR 3) [%]	inhibition at 198 µM (HL-60) [%]	EC50 (CCRF-CEM; Table 4 classes) [nM]	EC50 (HepG2; Table 4 classes) [nM]	EC50 (MOLT-4; Table 4 classes) [nM]	EC50 (KG-1; Table 4 classes) [nM]	EC50 (HT29; Table 4 classes) [nM]	EC50 (RPMI-8226; Table 4 classes) [nM]	EC50 (K562; [1]) [nM]	EC50 (OVCAR 3; Table 4 classes) [nM]	EC50 (HL-60; Table 4 classes) [nM]	further results
CC(C)OC(=O)[C@H](C)NP(=O)(Oc1ccccc1)OP(=O)(O)OC[C@H]1O[C@@H](n2cnc3c(N)nc(Cl)nc32)[C@H](F)C1O (stereo partly drawn) [Example 15, 2-Chloro-9-(2′-Deoxy-2′-fluoro-β-D-arabinofuranosyl)adenine-5′-O-[1-phenyl(isopropoxy-L-alaninyl)] Diphosphate Triethylammonium Salt]	99	49	51	47	90	92	69	80	36	41	96	–	–	–	–	–	–	–	–	–	EC50 (CCRF-CEM; absolute EC50, numeric values): < 20 nM; EC50 (HepG2; absolute EC50, numeric values): 370 nM; EC50 (MOLT-4; absolute EC50, numeric values): 30 nM; EC50 (KG-1; absolute EC50, numeric values): 90 nM; EC50 (HT29; absolute EC50, numeric values): 330 nM; EC50 (RPMI-8226; absolute EC50, numeric values): 30300 nM; EC50 (K562; K562, 72 h, absolute EC50, numeric values): > 198000 nM; EC50 (OVCAR 3; absolute EC50, numeric values): > 198000 nM; EC50 (HL-60; absolute EC50, numeric values): 60 nM
COC(=O)[C@H](C)NP(=O)(Oc1ccccc1)OP(=O)(O)OC[C@H]1O[C@@H](n2cnc3c(N)nc(Cl)nc32)[C@H](F)C1O (stereo partly drawn) [Example 16, 2-Chloro-9-(2′-Deoxy-2′-fluoro-β-D-arabinofuranosyl)adenine-5′-O-[1-phenyl(methoxy-L-alaninyl)] Diphosphate Triethylammonium Salt]	99	49	53	47	97	93	71	84	33	44	96	< 200	200 to 1000	< 200	< 200	200 to 1000	> 10000	> 10000	> 10000	< 200	–
C[C@H](NP(=O)(Oc1cccc2ccccc12)OP(=O)(O)OC[C@H]1O[C@@H](n2cnc3c(N)nc(Cl)nc32)[C@H](F)C1O)C(=O)OCc1ccccc1 (stereo partly drawn) [Example 17, 2-Chloro-9-(2′-Deoxy-2′-fluoro-β-D-arabinofuranosyl)adenine-5′-O-[1-1-naphthyl(benzoxy-L-alaninyl)] Diphosphate Triethylammonium Salt]	99	48	52	46	88	92	69	82	37	47	96	< 200	200 to 1000	< 200	< 200	200 to 1000	> 10000	> 10000	> 10000	< 200	–
CCCCCCOC(=O)[C@H](C)NP(=O)(Oc1ccccc1)OP(=O)(O)OC[C@H]1O[C@@H](n2cnc3c(N)nc(Cl)nc32)[C@H](F)C1O (stereo partly drawn) [Example 18, 2-Chloro-9-(2′-Deoxy-2′-fluoro-β-D-arabinofuranosyl)adenine-5′-O-[1-phenyl(hexoxy-L-alaninyl)] Diphosphate Triethylammonium Salt]	99	48	53	44	88	91	66	84	40	47	96	< 200	200 to 1000	< 200	< 200	200 to 1000	> 10000	> 10000	> 10000	< 200	–
C[C@H](NP(=O)(Oc1cccc2c1CCCC2)OP(=O)(O)OC[C@H]1O[C@@H](n2cnc3c(N)nc(Cl)nc32)[C@H](F)C1O)C(=O)OCc1ccccc1 (stereo partly drawn) [Example 19, 2-Chloro-9-(2′-Deoxy-2′-fluoro-β-D-arabinofuranosyl)adenine-5′-O-[1-5,6,7,8-tetrahydro-1-naphthyl(benzoxy-L-alaninyl)] Diphosphate Triethylammonium Salt]	99	57	51	47	90	92	68	79	37	51	95	< 200	200 to 1000	< 200	< 200	200 to 1000	> 10000	> 10000	> 10000	< 200	EC50 (RL): 200 to 1000 nM
CCOP(=O)(N[C@@H](C)C(=O)OCc1ccccc1)OP(=O)(O)OC[C@H]1O[C@@H](n2cnc3c(N)nc(Cl)nc32)[C@H](F)C1O (stereo partly drawn) [Example 20, 2-Chloro-9-(2′-Deoxy-2′-fluoro-β-D-arabinofuranosyl)adenine-5′-O-[1-ethyl(benzoxy-L-alaninyl)] Diphosphate Triethylammonium Salt]	99	69	54	48	89	92	69	80	35	49	96	< 200	200 to 1000	< 200	< 200	200 to 1000	> 10000	> 10000	> 10000	< 200	EC50 (RL): 200 to 1000 nM
CC(C)C[C@H](NP(=O)(Oc1ccccc1)OP(=O)(O)OC[C@H]1O[C@@H](n2cnc3c(N)nc(Cl)nc32)[C@H](F)C1O)C(=O)OCc1ccccc1 (stereo partly drawn) [Example 21, 2-Chloro-9-(2′-Deoxy-2′-fluoro-β-D-arabinofuranosyl)adenine-5′-O-[1-phenyl(benzoxy-L-leucinyl)] Diphosphate Triethylammonium Salt]	99	70	53	49	90	92	69	81	32	47	96	< 200	200 to 1000	< 200	< 200	200 to 1000	> 10000	> 10000	> 10000	< 200	EC50 (RL): 1000 to 5000 nM
